The values below come from patent US7018988B2, “Pharmaceutically active pyrrolidine derivatives as Bax inhibitors” (Applied Research Systems ARS Holding N.V., priority 2000, dated 2006).

Each structure is given as a SMILES string.

The target in the experiment is T1, Bax (Homo sapiens, UniProt Q07812).
T1 construct: endogenous in cells; host or cells: mitochondria isolated from HeLa cells
As to the kind of experiment: Effect of compounds on the release of cytochrome c triggered by Bid-induced Bax activation (in vitro assay d). Type of experiment: biochemical. Conditions: compound at 10 μM; mitochondria isolated from HeLa cells; 10 nM recombinant Bid. How it is done:
d) Effect of Compounds according to formula I onto the Release of Cytochrome c Trig-gered by Bid-Induced Bax Activation (In Vitro Assay)
Concerning the Bid-induced activation of Bax leading to mitochondrial Cytochrome C release, it is referred to the description of Martinou et al. in The Journal of Cell Biology, Vol. 144, No. 5, Mar. 8, 1999, pages 891–901. Mitochondria isolated from HeLa cells are incubated for 15 min at 30° C. in 100 μl of KCl buffer in the presence or absence of 10 nM recombinant Bid. The various compounds (10 μM) are pre-incubated for 5 min prior to addition of Bid. Following incubation, mitochondria were centrifuged for 5 min at 13000 g at 4° C. and the supernatant is collected for cytochrome c analysis. Cytochrome c is detected by Western blotting. The cytochrome c bands are scanned and quantified using a Bio-Rad (GS-700 Imaging Densitometer).
The above set out 2 in vitro assays c) and d) involving the determination of mitochondrial cytochrome c release are based on immunochemical methods using the Western blot analysis. […]

T1 sequence (Q07812 whole entry): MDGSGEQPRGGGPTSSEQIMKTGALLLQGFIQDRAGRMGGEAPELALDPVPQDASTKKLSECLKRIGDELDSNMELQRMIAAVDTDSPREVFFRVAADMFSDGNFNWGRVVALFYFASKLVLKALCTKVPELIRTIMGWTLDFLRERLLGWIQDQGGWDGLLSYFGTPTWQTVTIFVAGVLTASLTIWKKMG

On to `CCCCCNC(=O)N1CC(=NOC)C[C@H]1C(=O)NCCO` [Example 23, (2S,4EZ)-N^2-(2-hydroxyethyl)-4-(methoxyimino)-N^1-pentyl-1,2-pyrrolidinedicarboxamide], for which the inhibition at 10 µM is approximately 79%. For the compound `CCCCCNC(=O)N1CC(=NOC)C[C@H]1C(=O)N1CCN(Cc2ccc3c(c2)OCO3)CC1` [Example 28, (2S,4EZ)-2-{[4-(1,3-benzodioxol-5-ylmethyl)-1-piperazinyl]carbonyl}-4-(methoxyimino)-N-pentyl-1-pyrrolidinecarboxamide], the inhibition at 10 µM was approximately 59%.

For orientation: inhibition means the share of the control response that was lost under treatment.
